Results as given in ChEMBL document CHEMBL1201862, “PubChem BioAssay data set” (2004).
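Assay format: 96-well plates, 48-hour exposure. Abbreviation: GI50, concentration required for 50% inhibition of growth.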 Active and inactive are the calls of the source. No stated cut-off is given here; in the data, active = GI50 up to about 1.1 µM and inactive = higher.

Key:
Test in all cases: inhibition of tumour cell growth, NCI panel, 48 h
[1] = test system: HOP-92
[2] = test system: SNB-75
[3] = test system: HOP-62
[4] = test system: NCI-H23
[5] = test system: NCI-H522
[6] = test system: PC-3
[7] = test system: SW-620
[8] = test system: SNB-19
[9] = test system: U-251
[10] = test system: LOX IMVI
[11] = test system: UACC-62
[12] = test system: MDA-MB-435
[13] = test system: MCF7
[14] = test system: A549
[15] = test system: SN12C
[16] = test system: NCI/ADR-RES
[17] = test system: OVCAR-5
[18] = test system: SR
[19] = test system: MDA-MB-231
[20] = test system: HCT-15
[21] = test system: KM12
[22] = test system: COLO 205
[23] = test system: SF-539
[24] = test system: CAKI-1
[25] = test system: M14
[26] = test system: NCI-H226
[27] = test system: TK-10
[28] = test system: CCRF-CEM
[29] = test system: Hs-578T
[30] = test system: MOLT-4
[31] = test system: A498
[32] = test system: ACHN
[33] = test system: T47D
[34] = test system: HL-60
[35] = test system: OVCAR-8
[36] = test system: SK-MEL-5
[37] = test system: DU-145
[38] = test system: RXF 393
[39] = test system: EKVX
[40] = test system: HCT-116
[41] = test system: SK-MEL-28
[42] = test system: BT-549
[43] = test system: OVCAR-4
[44] = test system: NCI-H460
[45] = test system: MDA-N
[46] = test system: IGROV-1
[47] = test system: RPMI-8226
[48] = test system: SF-295
[49] = test system: OVCAR-3
[50] = test system: SK-OV-3
[51] = test system: UO-31
[52] = test system: HT-29
[53] = test system: Malme-3M
[54] = test system: K562
[55] = test system: SF-268
[56] = test system: HCC 2998
[57] = test system: UACC-257
[58] = test system: 786-0
[59] = test system: SK-MEL-2

## COc1cccc(C2c3cc4c(cc3OC(N3CCOCC3)C2C)OCO4)c1O (stereo not drawn)
[1]
  GI50: 12.1 µM (inactive)
[2]
  GI50: 7.29 µM (inactive)
[3]
  GI50: 4.27 µM (inactive)
[4]
  GI50: 6.73 µM (inactive)
[5]
  GI50: 2.9 µM (inactive)
[6]
  GI50: 4.7 µM (inactive)
[7]
  GI50: 3.87 µM (inactive)
[8]
  GI50: 3.44 µM (inactive)
[9]
  GI50: 0.38 µM (active)
[10]
  GI50: 5.31 µM (inactive)
[11]
  GI50: 4.53 µM (inactive)
[12]
  GI50: 1.24 µM (inactive)
[13]
  GI50: 5.14 µM (inactive)
[14]
  GI50: 4.82 µM (inactive)
[15]
  GI50: 6.59 µM (inactive)
[16]
  GI50: 7.21 µM (inactive)
[17]
  GI50: 7.46 µM (inactive)
[18]
  GI50: 1.23 µM (inactive)
[19]
  GI50: 11.6 µM (inactive)
[20]
  GI50: 3.32 µM
[21]
  GI50: 3.48 µM (inactive)
[22]
  GI50: 4.28 µM (inactive)
[23]
  GI50: 2.69 µM (inactive)
[24]
  GI50: 2.66 µM (inactive)
[25]
  GI50: 4.6 µM (inactive)
[26]
  GI50: 4.46 µM (inactive)
[27]
  GI50: 8.24 µM (inactive)
[28]
  GI50: 3.28 µM (inactive)
[29]
  GI50: 1.77 µM (inactive)
[30]
  GI50: 4.02 µM (inactive)
[31]
  GI50: 6.27 µM (inactive)
[32]
  GI50: 10.1 µM (inactive)
[33]
  GI50: 4.48 µM (inactive)
[34]
  GI50: 2.26 µM (inactive)
[35]
  GI50: 6.59 µM (inactive)
[36]
  GI50: 3.6 µM (inactive)
[37]
  GI50: 4.43 µM (inactive)
[38]
  GI50: 2.13 µM (inactive)
[39]
  GI50: 9.14 µM (inactive)
[40]
  GI50: 3.84 µM (inactive)
[41]
  GI50: 10.9 µM (inactive)
[42]
  GI50: 13.9 µM (inactive)
[43]
  GI50: 9.86 µM (inactive)
[44]
  GI50: 3.55 µM (inactive)
[45]
  GI50: 1.03 µM (active)
[46]
  GI50: 6.19 µM (inactive)
[47]
  GI50: 2.83 µM (inactive)
[48]
  GI50: 3.64 µM (inactive)
[49]
  GI50: 3.64 µM (inactive)
[50]
  GI50: 5.56 µM (inactive)
[51]
  GI50: 8.3 µM (inactive)
[52]
  GI50: 4.02 µM (inactive)
[53]
  GI50: 4.99 µM (inactive)
[54]
  GI50: 3.06 µM (inactive)
[55]
  GI50: 6.89 µM (inactive)
[56]
  GI50: 7.23 µM (inactive)
[57]
  GI50: 9.14 µM (inactive)
[58]
  GI50: 5.6 µM (inactive)
[59]
  GI50: 7.1 µM (inactive)

## BrCC[N+]12CC[N+](CCBr)(CC1)C2
[1]
  GI50: > 100 µM (inactive)
[2]
  GI50: > 100 µM (inactive)
[3]
  GI50: 39.1 µM (inactive)
[4]
  GI50: > 100 µM (inactive)
[5]
  GI50: > 100 µM (inactive)
[6]
  GI50: > 100 µM (inactive)
[7]
  GI50: > 100 µM (inactive)
[8]
  GI50: > 100 µM (inactive)
[9]
  GI50: > 100 µM (inactive)
[10]
  GI50: > 100 µM (inactive)
[11]
  GI50: > 100 µM (inactive)
[12]
  GI50: > 100 µM (inactive)
[13]
  GI50: > 100 µM (inactive)
[14]
  GI50: > 100 µM (inactive)
[15]
  GI50: > 100 µM (inactive)
[16]
  GI50: > 100 µM (inactive)
[17]
  GI50: > 100 µM (inactive)
[18]
  GI50: > 100 µM (inactive)
[19]
  GI50: > 100 µM (inactive)
[20]
  GI50: > 100 µM
[21]
  GI50: > 100 µM (inactive)
[22]
  GI50: > 100 µM (inactive)
[23]
  GI50: > 100 µM (inactive)
[24]
  GI50: > 100 µM (inactive)
[25]
  GI50: > 100 µM (inactive)
[26]
  GI50: > 100 µM (inactive)
[27]
  GI50: > 100 µM (inactive)
[28]
  GI50: > 100 µM (inactive)
[29]
  GI50: > 100 µM (inactive)
[30]
  GI50: > 100 µM (inactive)
[31]
  GI50: > 100 µM (inactive)
[32]
  GI50: > 100 µM (inactive)
[33]
  GI50: > 100 µM (inactive)
[34]
  GI50: > 100 µM (inactive)
[35]
  GI50: > 100 µM (inactive)
[36]
  GI50: > 100 µM (inactive)
[37]
  GI50: > 100 µM (inactive)
[38]
  GI50: > 100 µM (inactive)
[39]
  GI50: > 100 µM (inactive)
[40]
  GI50: > 100 µM (inactive)
[41]
  GI50: > 100 µM (inactive)
[42]
  GI50: > 100 µM (inactive)
[43]
  GI50: > 100 µM (inactive)
[44]
  GI50: > 100 µM (inactive)
[45]
  GI50: > 100 µM (inactive)
[46]
  GI50: > 100 µM (inactive)
[47]
  GI50: > 100 µM (inactive)
[48]
  GI50: > 100 µM (inactive)
[49]
  GI50: > 100 µM (inactive)
[50]
  GI50: > 100 µM (inactive)
[51]
  GI50: > 100 µM (inactive)
[52]
  GI50: > 100 µM (inactive)
[53]
  GI50: > 100 µM (inactive)
[54]
  GI50: > 100 µM (inactive)
[55]
  GI50: > 100 µM (inactive)
[56]
  GI50: > 100 µM (inactive)
[57]
  GI50: > 100 µM (inactive)
[58]
  GI50: > 100 µM (inactive)
[59]
  GI50: > 100 µM (inactive)
